Test system: HEK293
Assay: Inhibition of Wnt/beta-catenin signaling pathway in human HEK293 cells at 20 uM after 24 hrs by dual luciferase reporter gene assay relative to vehicle-treated control
Conditions: HEK293, 24 h

| SMILES | inhibition at 20 µM [%] |
| --- | --- |
| Oc1ccc2c(c1)OCO2 | 10.1 |
| COc1cc([C@@H](O)[C@@H](CO)Oc2ccc(CCCO)cc2O)ccc1O | -30.7 |
| COc1cc([C@@H]2Oc3c(OC)cc(CCCO[C@@H]4O[C@H](CO)[C@@H](O)[C@H](O)[C@H]4O)cc3[C@H]2CO)ccc1O | -14.8 |
| CC(=O)/C=C/C=C/c1ccc2c(c1)O[C@@H](CO)[C@H](c1ccc(O)c(O)c1)O2 | 0.6 |
| O=C/C=C/c1ccc2c(c1)OC(c1ccc3c(c1)OC(CO)C(c1ccc(O)c(O)c1)O3)C(CO)O2 (stereo not drawn) | 69.9 |
| COc1cc([C@H]2c3c(cc(O)c(O)c3OC)C[C@@H](CO)[C@@H]2CO)ccc1O | 2.6 |
| COC(=O)[C@@H](Cc1ccc(O)c(O)c1)OC(=O)/C=C/c1ccc(O)c2c1[C@@H](C(=O)O[C@H](Cc1ccc(O)c(O)c1)C(=O)OC)[C@H](c1ccc(O)c(O)c1)O2 | 10.5 |
| COc1cc([C@H]2OC[C@@H]3[C@@H]2CO[C@H]3c2cc(OC)c(O[C@@H]3O[C@H](CO)[C@@H](O)[C@H](O)[C@H]3O)c(OC)c2)cc(OC)c1O[C@@H]1O[C@H](CO)[C@@H](O)[C@H](O)[C@H]1O | 9.8 |
| COc1cc(CC(CO)c2cc(/C=C/CO)cc(OC)c2O[C@@H]2O[C@H](CO)[C@@H](O)[C@H](O)[C@H]2O)ccc1O (stereo partly drawn) | 11.4 |
| COc1cc([C@@H]2OC[C@@H]3[C@H]2CO[C@@H]3c2ccc(OC)c(OC)c2)ccc1O | 24.7 |
| O[C@]12CO[C@H](c3ccc4c(c3)OCO4)[C@H]1CO[C@@H]2c1ccc2c(c1)OCO2 | -3.5 |
| O=C/C=C/c1ccc2c(c1)O[C@@H](CO)[C@H](c1ccc(O)c(O)c1)O2 [AMERICANIN A] | 55 |
| C/C=C/c1cc(OC)c2c(c1)C(C)C(c1ccc(O)c(OC)c1)O2 (stereo not drawn) [DEHRODIISOEUGENOL] | 28 |
| COc1cc([C@@H]2Oc3c(OC)cc(CCCO)cc3[C@H]2CO)ccc1O [DIHYDRODEHYDRODICONIFERYL ALCOHOL] | 31.4 |
| COc1ccc([C@@H]2OC[C@@H]3[C@H]2CO[C@H]3c2ccc(OC)c(OC)c2)cc1OC [EUDESMINE] | 26.3 |
| COc1ccc([C@@H]2OC[C@H]3[C@@H]2CO[C@@H]3c2ccc3c(c2)OCO3)cc1OC [FARGESIN] | 29.8 |
| COc1cc2c(c(OC)c1OC)-c1c(cc3c(c1OC)OCO3)C[C@H](C)[C@](C)(O)C2 [GOMISIN A] | 38.2 |
| C=CCc1ccc(O)c(-c2ccc(O)c(CC=C)c2)c1 [HONOKIOL] | 59.3 |
| C=CCc1ccc(O)c(-c2cc(CC=C)ccc2O)c1 [MAGNOLOL] | 72.4 |
| COc1cc(C[C@H]2COC(=O)[C@@H]2Cc2ccc(O[C@@H]3O[C@H](CO)[C@@H](O)[C@H](O)[C@H]3O)c(OC)c2)ccc1O [MATAIRESINOSIDE] | 9.3 |
| O=C(/C=C/c1ccc(O)c(O)c1)O[C@H](Cc1ccc(O)c(O)c1)C(=O)O [ROSMARINIC ACID] | 27 |
| C/C=C(\C)C(=O)O[C@H]1c2cc(OC)c(OC)c(OC)c2-c2c(cc3c(c2O)OCO3)C[C@H](C)[C@]1(C)O [SCHISANTHERIN C] | -9.3 |
| COc1cc2c(c(OC)c1OC)-c1c(cc(OC)c(OC)c1OC)C[C@](C)(O)[C@@H](C)C2 [SCHIZANDRIN] | 6.2 |
| c1cc2c(cc1[C@H]1OC[C@H]3[C@@H]1CO[C@@H]3c1ccc3c(c1)OCO3)OCO2 [SESAMIN] | 39.7 |
| c1cc2c(cc1O[C@H]1OC[C@H]3[C@@H]1CO[C@@H]3c1ccc3c(c1)OCO3)OCO2 [SESAMOLIN] | 11.6 |
| COc1cc(C2Oc3cc([C@H]4Oc5cc(O)cc(O)c5C(=O)[C@@H]4O)ccc3OC2CO)ccc1O (stereo partly drawn) [SILIBININ] | 8.3 |
| COc1cc([C@H]2OC[C@H]3[C@@H]2CO[C@@H]3c2ccc3c(c2)OCO3)ccc1O[C@@H]1O[C@H](CO)[C@@H](O)[C@H](O)[C@H]1O [SIMPLEXOSIDE] | -13.6 |
| COc1cc2c(c(OC)c1OC)-c1c(cc3c(c1OC)OCO3)C[C@H](C)[C@H](C)C2 [WUWEIZISU B] | -17.8 |
